This note sets out measurements from patent publication US9828369B2, “Isoquinoline derivatives useful as inhibitors of diacylglyceride O-acyltransferase 2” (Merck Sharp & Dohme Corp., priority 2014, dated 2017).

The experiment has as its target hDGAT2 (Homo sapiens (Human), UniProt Q96PD7). The experiment in a line: DGAT2 enzymatic activity assay (triolein formation, LC/MS/MS).
Where [1] appears, read: read-out: IC50 values for inhibition of DGAT2, membrane prep of Sf-9 cells expressing hDGAT2, 25 μM diolein, 10 μM oleoyl-CoA, room temperature, triolein by LC/MS/MS.

Each structure is given as a SMILES string. pIC50: −log10 of the molar value. Where two headings read alike, the source gives them in different places.

Sequence of hDGAT2 (Q96PD7 whole entry): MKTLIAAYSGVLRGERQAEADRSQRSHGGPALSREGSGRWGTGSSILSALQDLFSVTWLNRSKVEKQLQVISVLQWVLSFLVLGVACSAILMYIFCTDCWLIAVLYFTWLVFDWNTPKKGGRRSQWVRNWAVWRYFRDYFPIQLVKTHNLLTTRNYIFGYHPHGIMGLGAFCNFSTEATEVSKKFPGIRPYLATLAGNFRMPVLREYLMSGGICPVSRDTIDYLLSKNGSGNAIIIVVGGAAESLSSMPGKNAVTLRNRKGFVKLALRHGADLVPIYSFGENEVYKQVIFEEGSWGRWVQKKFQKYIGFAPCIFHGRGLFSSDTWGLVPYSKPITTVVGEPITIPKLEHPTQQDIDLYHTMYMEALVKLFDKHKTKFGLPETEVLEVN

As usually defined, the pIC50 is the IC50 on a negative log10 scale, so that one unit is a factor of ten. On to `COC(=O)c1cccc(-c2ccc(CNC(=O)c3cccc4cnccc34)c3cnccc23)c1` [Example 12, 8-((isoquinoline-5-carboxamido)methyl)-5-(3-(methoxycarbonyl)phenyl) isoquinolin-2-ium], for which the pIC50 under setting [1] was 6.71.

For the compound `COC(=O)c1cccc(-c2ccc(CNC(=O)c3cc(C(C)(C)C)nn3C)c3cnccc23)c1` [Example 7, methyl 3-(8-((3-(tert-butyl)-1-methyl-1H-pyrazole-5-carboxamido)methyl)isoquinolin-5-yl)benzoate], under setting [1], the pIC50 was 6.95.

`COC(=O)c1cccc(-c2ccc(CNC(=O)c3cnn(-c4ccccc4)c3C(F)(F)F)c3cnccc23)c1` [Example 8, methyl 3-(8-((1-phenyl-5-(trifluoromethyl)-1H-pyrazole-4-carboxamido)methyl)isoquinolin-5-yl)benzoate]: the pIC50 under setting [1] was 6.91.

As for `COc1cccc(-c2ccc(CNC(=O)C(C)c3ccccc3F)c3cnccc23)c1` (stereo not shown) [Example 139, 2-(2-fluorophenyl)-N-((5-(3-methoxyphenyl)isoquinolin-8-yl)methyl)propanamide], under setting [1], the pIC50 is 6.67.

Take `COc1cccc(-c2ccc(CNC(=O)c3ccc(-c4ccccc4O)cc3)c3cnccc23)c1` [Example 82, 2′-hydroxy-N-((5-(3-methoxyphenyl)isoquinolin-8-yl)methyl)-[1,1′-biphenyl]-4-carboxamide]: the pIC50 under setting [1] is 6.22.

For `COc1cccc(-c2ccc(CNC(=O)c3cc(-c4ccccc4)nn3-c3ccccc3)c3cnccc23)c1` [Example 85, N-((5-(3-methoxyphenyl)isoquinolin-8-yl)methyl)-1,3-diphenyl-1H-pyrazole-5-carboxamide], the pIC50 under setting [1] is 5.45.

Turning to `COc1cccc(-c2ccc(CNC(=O)c3c[nH]c(-c4ccccc4)n3)c3cnccc23)c1` [Example 73, N-((5-(3-methoxyphenyl)isoquinolin-8-yl)methyl)-2-phenyl-1H-imidazole-4-carboxamide], the pIC50 under setting [1] was 5.23.

`COc1cccc(-c2ccc(CNC(=O)[C@@H]3COC(c4ccccc4)=N3)c3cnccc23)c1` (racemic) [Example 42, (R/S)-N-((5-(3-methoxyphenyl)isoquinolin-8-yl)methyl)-2-phenyl-4,5-dihydrooxazole-4-carboxamide]: the pIC50 was 5.45.

For `COc1cccc(-c2ccc(CNC(=O)CC(c3ccccc3)c3ccco3)c3cnccc23)c1` (stereo not shown) [Example 27, 3-(furan-2-yl)-N-((5-(3-methoxyphenyl)isoquinolin-8-yl)methyl)-3-phenylpropanamide], under setting [1], the pIC50 was 5.17.

For `COc1cccc(-c2ccc(CNC(=O)CCc3cnn(C)c3)c3cnccc23)c1` [Example 94, N-((5-(3-methoxyphenyl)isoquinolin-8-yl)methyl)-3-(1-methyl-1H-pyrazol-4-yl)propanamide], the pIC50 under setting [1] was 6.52.

For `COc1cccc(-c2ccc(CNC(=O)C(C)c3ccc(C(F)(F)F)cc3)c3cnccc23)c1` (stereo not shown) [Example 141, N-((5-(3-methoxyphenyl)isoquinolin-8-yl)methyl)-2-(4-(trifluoromethyl)phenyl)propanamide], the pIC50 under setting [1] was 6.25.

In the case of `COc1cccc(-c2ccc(CNC(=O)c3ccc(N4CCCC4=O)cc3)c3cnccc23)c1` [Example 67, N-((5-(3-methoxyphenyl)isoquinolin-8-yl)methyl)-4-(2-oxopyrrolidin-1-yl)benzamide], the pIC50 under setting [1] is 5.71.

For `COc1cccc(-c2ccc(CNC(=O)Cc3cccc(F)c3)c3cnccc23)c1` [Example 52, 2-(3-fluorophenyl)-N-((5-(3-methoxyphenyl)isoquinolin-8-yl)methyl)acetamide], the pIC50 under setting [1] is 5.43.

With `CCCc1cc(C(=O)NCc2ccc(-c3cccc(OC)c3)c3ccncc23)n(C)n1` [Example 44, N-((5-(3-methoxyphenyl)isoquinolin-8-yl)methyl)-1-methyl-3-propyl-1H-pyrazole-5-carboxamide], the pIC50 under setting [1] was 5.84.

For `COc1cccc(-c2ccc(CNC(=O)C(C)c3ccc(C4CCCCC4)c(Cl)c3)c3cnccc23)c1` (stereo not shown) [Example 148, 2-(3-chloro-4-cyclohexylphenyl)-N-((5-(3-methoxyphenyl)isoquinolin-8-yl)methyl)propanamide], the pIC50 under setting [1] is 5.16.

Regarding `COc1cccc(-c2ccc(CNC(=O)c3cnn(-c4ccccc4)c3C(F)(F)F)c3cnccc23)c1` [Example 132, N-((5-(3-methoxyphenyl)isoquinolin-8-yl)methyl)-1-phenyl-5-(trifluoromethyl)-1H-pyrazole-4-carboxamide], under setting [1], the pIC50 was 5.40.

For `CC(C)Oc1cccc(-c2ccc(CNC(=O)C3CC3c3ccccc3)c3cnccc23)c1` (stereo not shown) [Example 19, N-((5-(3-isopropoxyphenyl)isoquinolin-8-yl)methyl)-2-phenylcyclopropanecarboxamide], the pIC50 under setting [1] is 6.05.

In the case of `COc1cccc(-c2ccc(CNC(=O)c3cc(C(F)(F)F)n[nH]3)c3cnccc23)c1` [Example 29, N-((5-(3-methoxyphenyl)isoquinolin-8-yl)methyl)-3-(trifluoromethyl)-1H-pyrazole-5-carboxamide], the pIC50 under setting [1] is 5.75.

In the case of `COc1cccc(-c2ccc(CNC(=O)c3cccc(-c4cccc(F)c4)c3)c3cnccc23)c1` [Example 87, 3′-fluoro-N-((5-(3-methoxyphenyl)isoquinolin-8-yl)methyl)-[1,1′-biphenyl]-3-carboxamide], under setting [1], the negative logarithm of the IC50 (pIC50) was 5.92.

Consider `COc1cccc(-c2ccc(CNC(=O)c3cc(Br)cnc3-c3ccccc3)c3cnccc23)c1` [Example 120, 5-bromo-N-((5-(3-methoxyphenyl)isoquinolin-8-yl)methyl)-2-phenylnicotinamide], for which the pIC50 under setting [1] was 5.37.

Regarding `COc1cccc(-c2ccc(CNC(=O)Cc3ccc4c(c3)OCCO4)c3cnccc23)c1` [Example 63, 2-(2,3-dihydrobenzo[b][1,4]dioxin-6-yl)-N-((5-(3-methoxyphenyl)isoquinolin-8-yl)methyl)acetamide], the pIC50 under setting [1] is 5.52.

For the compound `COc1cccc(-c2ccc(CNC(=O)C(C)c3cccc(F)c3)c3cnccc23)c1` (stereo not shown) [Example 135, 2-(3-fluorophenyl)-N-((5-(3-methoxyphenyl)isoquinolin-8-yl)methyl)propanamide], under setting [1], the pIC50 was 5.70.

`COc1cccc(-c2ccc(CNC(=O)c3noc(-c4ccccc4)n3)c3cnccc23)c1` [Example 72, N-((5-(3-methoxyphenyl)isoquinolin-8-yl)methyl)-5-phenyl-1,2,4-oxadiazole-3-carboxamide]: the pIC50 under setting [1] was 5.41.

As to `COc1cccc(-c2ccc(CNC(=O)Cc3nnc(-c4ccccc4)[nH]3)c3cnccc23)c1` [Example 81, N-((5-(3-methoxyphenyl)isoquinolin-8-yl)methyl)-2-(5-phenyl-4H-1,2,4-triazol-3-yl)acetamide], the pIC50 under setting [1] was 6.32.

Take `COc1cccc(-c2ccc(CNC(=O)c3cc(C)n(Cc4ccccc4)n3)c3cnccc23)c1` [Example 117, 1-benzyl-N-((5-(3-methoxyphenyl)isoquinolin-8-yl)methyl)-5-methyl-1H-pyrazole-3-carboxamide]: under setting [1], the pIC50 is 6.03.

On to `NC(=O)c1cccc(-c2ccc(CNC(=O)C3CC3c3ccccc3)c3cnccc23)c1` (stereo not shown) [Example 22, 3-(8-((2-phenylcyclopropanecarboxamido)methyl)isoquinolin-5-yl)benzamide], for which, under setting [1], the pIC50 was 5.20.

In the case of `COc1cccc(-c2ccc(CNC(=O)c3cccc4cnccc34)c3cnccc23)c1` [Example 92, N-((5-(3-methoxyphenyl)isoquinolin-8-yl)methyl)isoquinoline-5-carboxamide], the pIC50 under setting [1] is 5.75.

Consider `COc1cccc(-c2ccc(CNC(=O)c3ccnc(-n4cnnn4)c3)c3cnccc23)c1` [Example 69, N-((5-(3-methoxyphenyl)isoquinolin-8-yl)methyl)-2-(1H-tetrazol-1-yl)isonicotinamide], for which the pIC50 under setting [1] was 5.47.

On to `COc1cccc(-c2ccc(CNC(=O)C(C)(C)Oc3ccc(C(F)(F)F)cc3)c3cnccc23)c1` [Example 111, N-((5-(3-methoxyphenyl)isoquinolin-8-yl)methyl)-2-methyl-2-(4-(trifluoromethyl)phenoxy)propanamide], for which the pIC50 under setting [1] is 5.91.

As to `COc1cccc(-c2ccc(CNC(=O)c3cncc4ccccc34)c3cnccc23)c1` [Example 33, N-((5-(3-methoxyphenyl)isoquinolin-8-yl)methyl)isoquinoline-4-carboxamide], the pIC50 under setting [1] is 5.47.

Consider `COc1cccc(-c2ccc(CNC(=O)Cc3cccc(Cl)c3Cl)c3cnccc23)c1` [Example 31, 2-(2,3-dichlorophenyl)-N-((5-(3-methoxyphenyl)isoquinolin-8-yl)methyl)acetamide], for which, under setting [1], the pIC50 is 6.05.

With `CC(c1ccccc1)c1ccc(CNC(=O)Nc2cccc(Cl)c2Cl)c2cnccc12` (stereo not shown) [Example 164, 1-(2,3-dichlorophenyl)-3-((5-(1-phenylethyl)isoquinolin-8-yl)methyl)urea], the pIC50 under setting [1] is 5.38.

Take `COc1cccc(-c2ccc(CNC(=O)c3ccn(-c4ccccc4)n3)c3cnccc23)c1` [Example 74, N-((5-(3-methoxyphenyl)isoquinolin-8-yl)methyl)-1-phenyl-1H-pyrazole-3-carboxamide]: the pIC50 under setting [1] was 5.90.

On to `COc1cccc(-c2ccc(CNC(=O)C3(c4ccc(C(F)(F)F)cc4)CCC3)c3cnccc23)c1` [Example 123, N-((5-(3-methoxyphenyl)isoquinolin-8-yl)methyl)-1-(4-(trifluoromethyl)phenyl)cyclobutanecarboxamide], for which the pIC50 under setting [1] is 6.29.

`COC(=O)c1cccc(-c2ccc(CNC(=O)[C@@H]3C[C@H]3c3ccccc3)c3cnccc23)c1` [Example 3, methyl 3-(8-(((1R,2R)-2-phenylcyclopropanecarboxamido)methyl)isoquinolin-5-yl)benzoate]: the pIC50 under setting [1] is 7.08.

As for `COc1cccc(-c2ccc(CNC(=O)c3cn(-c4ccccc4)nc3-c3ccccc3)c3cnccc23)c1` [Example 66, N-((5-(3-methoxyphenyl)isoquinolin-8-yl)methyl)-1,3-diphenyl-1H-pyrazole-4-carboxamide], under setting [1], the negative logarithm of the IC50 (pIC50) is 6.32.

`COc1cccc(-c2ccc(CNC(=O)c3ccc(-n4cccn4)cc3)c3cnccc23)c1` [Example 65, N-((5-(3-methoxyphenyl)isoquinolin-8-yl)methyl)-4-(1H-pyrazol-1-yl)benzamide] had a pIC50 of 5.70.
